Each compound was assayed against Recombinant GMPPNP-loaded KRAS G12C (KRAS-G12C(ON), active form) (Homo sapiens, UniProt P01116, G12C) (assay: KRAS G12C RAF Disruption Assay (HTRF)). Conditions: GMPPNP-loaded KRAS G12C 5 nM, GST-RAF1 RBD 9 nM, values given in μM, read-out: KRASG12C RAF Disruption Assay (IC50).
Assay type: biochemical
Procedure: This is a functional assay that measures activity of compounds against […]., the active form of KRAS G12C. Recombinant GMPPNP-loaded KRAS G12C (5 nM) was treated with compound at room temperature for 20 minutes in assay buffer (50 mM Tris pH 7.5, 100 mM NaCl, 1 mM MgCl2, 1 mM DTT, 100 μg/ml BSA). Recombinant GST-RAF1 RBD (9 nM) was added, and the reaction mixture was incubated for 20 minutes. SA-Tb (0.25 nM) was added, and the reaction mixture was incubated for 3 hours. HTRF signal was measured (PerkinElmer Envision), the signal ratio (λem 520/λem 495) was calculated, and IC50 values were calculated from the dose-response curve.

Compound	IC50 [µM]
(Z)-1-(3-((7M)-7-(6-amino-4-methyl-3-(trifluoromethyl)pyridin-2-yl)-6-chloro-8-fluoro-2-(((2R,7aR)-2-fluorotetrahydro-1H-pyrrolizin-7a(5H)-yl)methoxy)quinazolin-4-yl)-3,9-diazabicyclo[3.3.1]nonan-9-yl)-2-fluoro-3-(thiazol-2-yl)prop-2-en-1-one [Example 14]	2.1
Cc1cc(N)nc(-c2c(Cl)cc3c(N4C[C@H](C)N(C(=O)/C(F)=C/c5nccs5)C[C@H]4C)nc(OCC45CCCN4CC(F)C5)nc3c2F)c1C(F)(F)F (stereo partly drawn) [Example 19, (Z)-1-((2S,5R)-4-((7M)-7-(6-amino-4-methyl-3-(trifluoromethyl)pyridin-2-yl)-6-chloro-8-fluoro-2-((2-fluorotetrahydro-1H-pyrrolizin-7a(5H)-yl)methoxy)quinazolin-4-yl)-2,5-dimethylpiperazin-1-yl)-2-fluoro-3-(thiazol-2-yl)prop-2-en-1-one]	3.2
Cc1cc(N)nc(-c2c(Cl)cc3c(N4CCC5(CN(C(=O)/C(F)=C/c6nccs6)C5)C4)nc(OC[C@@]45CCCN4C[C@H](F)C5)nc3c2F)c1C(F)(F)F (atropisomer, axis not shown; (M)) [Example 9, (Z)-1-(6-((7M)-7-(6-amino-4-methyl-3-(trifluoromethyl)pyridin-2-yl)-6-chloro-8-fluoro-2-(((2R,7aS)-2-fluorotetrahydro-1H-pyrrolizin-7a(5H)-yl)methoxy)quinazolin-4-yl)-2,6-diazaspiro[3.4]octan-2-yl)-2-fluoro-3-(thiazol-2-yl)prop-2-en-1-one]	1.9

Same assay, conditions: GMPPNP-loaded KRAS G12C 5 nM, GST-RAF1 RBD 9 nM, values in nM, read-out: KRASG12C RAF Disruption Assay (IC50)

Compound	IC50 [µM]
Cc1ccc2[nH]ncc2c1-c1ccc2c(N3CCN(C(=O)/C(F)=C/c4cccnn4)[C@@H](CC#N)C3)nc(OC[C@@H]3CCCN3C)nc2c1F [Example 53]	0.07
C#Cc1c(F)ccc2cc(O)cc(-c3ccc4c(N5C[C@H]6CC[C@@H](C5)N6C(=O)/C(F)=C/c5ccccn5)nc(OC[C@]56CCC[C@H]5N(C)CCC6)nc4c3F)c12 [Example 27, (Z)-1-((1R,5S)-3-(7-(8-ethynyl-7-fluoro-3-hydroxynaphthalen-1-yl)-8-fluoro-2-(((4aS,7aR)-1-methyloctahydro-4aH-cyclopenta[b]pyridin-4a-yl)methoxy)quinazolin-4-yl)-3,8-diazabicyclo[3.2.1]octan-8-yl)-2-fluoro-3-(pyridin-2-yl)prop-2-en-1-one]	0.0064
Cc1cccc(/C=C(\F)C(=O)N2CCN(c3nc(OC[C@@H]4CCCN4C)nc4c(F)c(-c5cc(O)cc6ccccc56)ccc34)C[C@@H]2CC#N)n1 [Example 34, 2-((S)-1-((Z)-2-fluoro-3-(6-methylpyridin-2-yl)acryloyl)-4-(8-fluoro-7-(3-hydroxynaphthalen-1-yl)-2-(((S)-1-methylpyrrolidin-2-yl)methoxy)quinazolin-4-yl)piperazin-2-yl)acetonitrile]	0.027
Cc1cc(N)nc(-c2c(Cl)cc3c(N4CCC(CNC(=O)C(F)=Cc5ccccn5)CC4)nc(OCC4CCCN4C)nc3c2F)c1C(F)(F)F [Example 44, (2Z)-N-({1-[(7M)-7-[6-amino-4-methyl-3-(trifluoromethyl)pyridin-2-yl]-6-chloro-8-fluoro-2-{[(2S)-1-methylpyrrolidin-2-yl]methoxy}quinazolin-4-yl]piperidin-4-yl}methyl)-2-fluoro-3-(pyridin-2-yl)prop-2-enamide]	0.35
Cc1cc(N)nc(-c2c(Cl)cc3c(N4CC[C@@H]5CC[C@H](C4)N5C(=O)/C(F)=C/c4nccs4)nc(OC[C@]45CCC[C@H]4N(C)CCC5)nc3c2F)c1C(F)(F)F [Example 70, (Z)-1-((1R,6S)-3-(7-(6-amino-4-methyl-3-(trifluoromethyl)pyridin-2-yl)-6-chloro-8-fluoro-2-(((4aS,7aR)-1-methyloctahydro-4aH-cyclopenta[b]pyridin-4a-yl)methoxy)quinazolin-4-yl)-3,9-diazabicyclo[4.2.1]nonan-9-yl)-2-fluoro-3-(thiazol-2-yl)prop-2-en-1-one]	7.9
C#Cc1cccc2cccc(-c3ccc4c(N(C)[C@@H]5CCN(C(=O)/C(F)=C/c6ccccn6)C5)nc(OC[C@@]56CCCN5C[C@H](F)C6)nc4c3F)c12 [Example 81, (Z)-1-((R)-3-((7-(8-ethynylnaphthalen-1-yl)-8-fluoro-2-(((2R,7aS)-2-fluorotetrahydro-1H-pyrrolizin-7a(5H)-yl)methoxy)quinazolin-4-yl)(methyl)amino)pyrrolidin-1-yl)-2-fluoro-3-(pyridin-2-yl)prop-2-en-1-one]	0.02
N#CC[C@H]1CN(c2nc(OC[C@@]34CCCN3C[C@H](F)C4)nc3c(F)c(-c4cccc5cccc(C#N)c45)ccc23)CCN1C(=O)/C(F)=C/c1ccccn1 [Example 78, 8-(4-((S)-3-(cyanomethyl)-4-((Z)-2-fluoro-3-(pyridin-2-yl)acryloyl)piperazin-1-yl)-8-fluoro-2-(((2R,7aS)-2-fluorotetrahydro-1H-pyrrolizin-7a(5H)-yl)methoxy)quinazolin-7-yl)-1-naphthonitrile]	0.24
CN1CCC[C@H]1COc1nc(N2CCN(C(=O)/C(F)=C/c3nccs3)[C@@H](CC#N)C2)c2ccc(-c3cc(O)cc4ccccc34)c(F)c2n1 [Example 23, 2-((S)-1-((Z)-2-fluoro-3-(thiazol-2-yl)acryloyl)-4-(8-fluoro-7-(3-hydroxynaphthalen-1-yl)-2-(((S)-1-methylpyrrolidin-2-yl)methoxy)quinazolin-4-yl)piperazin-2-yl)acetonitrile]	0.016
CN1CCC[C@H]1COc1nc(N2CCN(C(=O)/C(F)=C/c3ccccn3)[C@@H](CC#N)C2)c2ccc(-c3cccc4cccc(C#N)c34)c(F)c2n1 [Example 79, 8-(4-((S)-3-(cyanomethyl)-4-((Z)-2-fluoro-3-(pyridin-2-yl)acryloyl)piperazin-1-yl)-8-fluoro-2-(((S)-1-methylpyrrolidin-2-yl)methoxy)quinazolin-7-yl)-1-naphthonitrile]	1.6
Cc1cc(N)nc(-c2c(Cl)cc3c(N4CC[C@@H]5CC[C@H](C4)N5C(=O)/C(F)=C/c4nccs4)nc(OC[C@@]45CCCN4C[C@H](F)C5)nc3c2F)c1C(F)(F)F [Example 71, (Z)-1-((1R,6S)-3-(7-(6-amino-4-methyl-3-(trifluoromethyl)pyridin-2-yl)-6-chloro-8-fluoro-2-(((2R,7aS)-2-fluorotetrahydro-1H-pyrrolizin-7a(5H)-yl)methoxy)quinazolin-4-yl)-3,9-diazabicyclo[4.2.1]nonan-9-yl)-2-fluoro-3-(thiazol-2-yl)prop-2-en-1-one]	9
Cc1cc(N)nc(-c2c(Cl)cc3c(N4C[C@]5(NC(=O)/C(F)=C/c6nccs6)CC[C@H]4C5)nc(OC[C@@H]4CCCN4C)nc3c2F)c1C(F)(F)F (atropisomer, axis not shown) [Example 69, (Z)-N-((1S,4S)-2-(7M-(6-amino-4-methyl-3-(trifluoromethyl)pyridin-2-yl)-6-chloro-8-fluoro-2-(((S)-1-methylpyrrolidin-2-yl)methoxy)quinazolin-4-yl)-2-azabicyclo[2.2.1]heptan-4-yl)-2-fluoro-3-(thiazol-2-yl)acrylamide]	2.6
Cc1cccc(/C=C(\F)C(=O)N2CCN(c3nc(OC[C@@H]4CCCN4C)nc4c(F)c(-c5cccc6cccc(Cl)c56)ccc34)C[C@@H]2CC#N)n1 [Example 36, 2-((S)-1-((Z)-2-fluoro-3-(6-methylpyridin-2-yl)acryloyl)-4-(8-fluoro-7-(8-chloronaphthalen-1-yl)-2-(((S)-1-methylpyrrolidin-2-yl)methoxy)quinazolin-4-yl)piperazin-2-yl)acetonitrile]	0.025
C#Cc1c(F)ccc2cc(O)cc(-c3ccc4c(N5C[C@H]6CC[C@@H](C5)N6C(=O)/C(F)=C/c5nccs5)nc(OC[C@@H]5CCCN5C)nc4c3F)c12 [Example 21, (Z)-1-((1R,5S)-3-(7-(8-ethynyl-7-fluoro-3-hydroxynaphthalen-1-yl)-8-fluoro-2-(((S)-1-methylpyrrolidin-2-yl)methoxy)quinazolin-4-yl)-3,8-diazabicyclo[3.2.1]octan-8-yl)-2-fluoro-3-(thiazol-2-yl)prop-2-en-1-one]	0.4
CN1CCC[C@H]1COc1nc(N2CCN(C(=O)/C(F)=C/c3ncccn3)[C@@H](CC#N)C2)c2ccc(-c3c(O)cccc3F)c(F)c2n1 [Example 55, 2-((2S)-1-((Z)-2-fluoro-3-(pyrimidin-2-yl)acryloyl)-4-(8-fluoro-7-(2-fluoro-6-hydroxyphenyl)-2-(((S)-1-methylpyrrolidin-2-yl)methoxy)quinazolin-4-yl)piperazin-2-yl)acetonitrile]	1
CCc1cccc2cccc(-c3ccc4c(N5CCN(C(=O)/C(F)=C/c6nccs6)[C@@H](CC#N)C5)nc(OC[C@@H]5CCCN5C)nc4c3F)c12 [Example 60, 2-((S)-4-(7-(8-ethylnaphthalen-1-yl)-8-fluoro-2-(((S)-1-methylpyrrolidin-2-yl)methoxy)quinazolin-4-yl)-1-((Z)-2-fluoro-3-(thiazol-2-yl)acryloyl)piperazin-2-yl)acetonitrile]	0.17
C#Cc1c(F)ccc2cc(O)cc(-c3ccc4c(N5C[C@H]6CC[C@@H](C5)N6C(=O)/C(F)=C/c5ccccn5)nc(OC[C@@H]5CCCN5C)nc4c3F)c12 [Example 22, (Z)-1-((1R,5S)-3-(7-(8-ethynyl-7-fluoro-3-hydroxynaphthalen-1-yl)-8-fluoro-2-(((S)-1-methylpyrrolidin-2-yl)methoxy)quinazolin-4-yl)-3,8-diazabicyclo[3.2.1]octan-8-yl)-2-fluoro-3-(pyridin-2-yl)prop-2-en-1-one]	0.26

Reference: patent publication US20250263424A1, “KRAS INHIBITORS” (Bristol-Myers Squibb Company, priority 2022, published 2025)
